# Laboratory results taken from PMC9356065, “Novel psoralen derivatives as anti-breast cancer agents and their light-activated cytotoxicity against HER2 positive breast cancer cells” (Scientific Reports, 2022).
# Counter-ions that a name gives are not always drawn. Like-named read-outs stand apart in the source and are kept apart here.
# Legend:
# [1] = Inhibition of superoxide radical formation by xanthine/xanthine oxidase (XXO); format: biochemical; settings: for XXO %Inh: screening concentration 500 µM; for IC50: read-out: XXO IC50
# Source text: 1. […]
# T47-D = assay: MTT cytotoxicity, 48 h, without UVA; format: cell-based, human; settings: for IC50 / inhibition at 50 µg/mL: Homo sapiens, T47D, light or radiation study, 48 h, without UVA; for IC50: hormone-dependent breast cancer, read-out: Cytotoxic activity T47-D IC50; for inhibition at 50 µg/mL: I = %inhibition lower than 50%, read-out: Cytotoxic activity T47-D %Inhibition; for Selectivity Index (SI): SI = IC50 for MRC-5/IC50 for T47-D
# Description: (§1) Additionally, the cytotoxicity towards normal cells, human embryonal lung fibroblast cell MRC-5 was also assessed.
# (§2) MDA-MB-231 (triple-negative breast cancer) was obtained from M.D. Anderson Cancer Center, Houston, TX, USA). T47-D (hormone-dependent breast carcinoma), SK-BR-3 (human HER2+ breast cancer), and MRC-5 (normal embryonic lung fibroblast) were obtained from the American Type Culture Collection (ATCC, Manassas, VA, USA).
# (§3) The cytotoxic effect of tested compounds was evaluated in two breast cancer cell lines, MDA-MB-231 and T47-D. Number of survival cells after exposure to tested compounds for 48 h was determined by MTT assay, as previously described.
# aromatase (CYP19) = biological target: T1, aromatase (CYP19) (Homo sapiens, UniProt P11511); assay: Inhibition of aromatase (AIA); format: biochemical; settings: at 12.5 µM; I = %inhibition lower than 50%; read-out: Aromatase inhibitory activity %Inhibition
# T1 sequence (P11511 1-503): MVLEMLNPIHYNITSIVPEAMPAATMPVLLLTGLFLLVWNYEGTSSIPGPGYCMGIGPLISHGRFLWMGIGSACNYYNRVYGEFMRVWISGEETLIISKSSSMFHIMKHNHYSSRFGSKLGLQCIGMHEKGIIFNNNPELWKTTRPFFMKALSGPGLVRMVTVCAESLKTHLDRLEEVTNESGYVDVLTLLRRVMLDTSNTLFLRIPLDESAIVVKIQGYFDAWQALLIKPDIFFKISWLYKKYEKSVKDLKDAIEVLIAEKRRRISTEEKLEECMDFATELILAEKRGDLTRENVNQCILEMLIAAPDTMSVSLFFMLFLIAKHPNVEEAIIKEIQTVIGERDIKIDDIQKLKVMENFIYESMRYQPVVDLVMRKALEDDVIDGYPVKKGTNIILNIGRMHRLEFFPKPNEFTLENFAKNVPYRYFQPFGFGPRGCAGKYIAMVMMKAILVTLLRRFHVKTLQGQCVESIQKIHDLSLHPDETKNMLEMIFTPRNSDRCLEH
# Description: Estrogens are the critical risk factor for breast cancer initiation and progression and the aromatase enzyme involves in the final step conversion of androgens to estrogens[21],[22]. […] In this study, the synthesized psoralen derivatives were also tested for aromatase inhibitory activity (AIA) which is considered to be one of chemopreventive mechanisms for hormone dependent breast cancer.
# Inhibition of the aromatase was performed using the method designed by Stresser et al.[39].
# MDA-MB-231 [2] = assay: MTT cytotoxicity, 48 h, without UVA; format: cell-based; settings: Homo sapiens, MDA-MB-231, light or radiation study; for IC50: hormone-independent breast cancer, read-out: Cytotoxic activity MDA-MB-231 IC50; for inhibition at 50 µg/mL: I = %inhibition lower than 50%, read-out: Cytotoxic activity MDA-MB-231 %Inhibition
# Description: as §2, §3
# xanthine oxidase = xanthine oxidase (Homo sapiens, UniProt P47989); assay: Inhibition of xanthine oxidase (IXO); format: biochemical; settings: for inhibition at 500 µM: screening concentration 500 µM, read-out: IXO %Inh
# Chain of xanthine oxidase (P47989 whole entry, species assumed): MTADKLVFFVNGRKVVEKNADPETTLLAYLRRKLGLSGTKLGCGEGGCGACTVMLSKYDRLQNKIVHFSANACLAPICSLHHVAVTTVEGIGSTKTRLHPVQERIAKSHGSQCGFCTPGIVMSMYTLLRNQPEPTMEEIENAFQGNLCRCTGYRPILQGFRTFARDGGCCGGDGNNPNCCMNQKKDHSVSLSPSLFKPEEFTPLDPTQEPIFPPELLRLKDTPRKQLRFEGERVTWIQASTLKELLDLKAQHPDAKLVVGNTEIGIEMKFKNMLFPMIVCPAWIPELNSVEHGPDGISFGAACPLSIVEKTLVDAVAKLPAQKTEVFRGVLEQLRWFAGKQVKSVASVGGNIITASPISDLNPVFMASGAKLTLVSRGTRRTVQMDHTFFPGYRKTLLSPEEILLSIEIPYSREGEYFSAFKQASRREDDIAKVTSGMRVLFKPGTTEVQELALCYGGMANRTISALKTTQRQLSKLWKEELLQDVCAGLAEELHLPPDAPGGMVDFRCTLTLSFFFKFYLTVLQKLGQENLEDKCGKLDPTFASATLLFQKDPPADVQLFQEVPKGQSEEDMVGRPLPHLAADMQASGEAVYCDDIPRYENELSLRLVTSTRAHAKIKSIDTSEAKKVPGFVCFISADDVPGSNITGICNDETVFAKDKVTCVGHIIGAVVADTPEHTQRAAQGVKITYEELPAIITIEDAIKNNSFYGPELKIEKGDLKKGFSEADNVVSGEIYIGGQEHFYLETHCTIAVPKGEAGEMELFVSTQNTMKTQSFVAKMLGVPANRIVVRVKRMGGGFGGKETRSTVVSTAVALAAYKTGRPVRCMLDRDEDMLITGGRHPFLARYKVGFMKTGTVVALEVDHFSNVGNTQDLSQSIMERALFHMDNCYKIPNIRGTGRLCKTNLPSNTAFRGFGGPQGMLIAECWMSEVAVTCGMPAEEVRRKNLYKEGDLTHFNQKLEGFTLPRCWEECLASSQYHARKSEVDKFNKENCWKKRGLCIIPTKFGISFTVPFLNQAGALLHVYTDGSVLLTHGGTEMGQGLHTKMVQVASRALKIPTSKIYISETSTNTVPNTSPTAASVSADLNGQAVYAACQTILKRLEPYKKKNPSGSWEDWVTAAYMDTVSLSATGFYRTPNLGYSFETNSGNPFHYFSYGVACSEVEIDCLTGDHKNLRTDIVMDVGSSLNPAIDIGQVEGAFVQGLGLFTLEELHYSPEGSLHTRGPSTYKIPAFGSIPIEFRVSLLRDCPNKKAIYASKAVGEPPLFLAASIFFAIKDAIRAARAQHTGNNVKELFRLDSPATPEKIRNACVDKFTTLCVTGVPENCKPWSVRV
# Description: 1. […]
# Inhibition of xanthine oxidase (IXO)
# Xanthine oxidase activity was determined by quantifying the amount of uric acid produced
# from xanthine. […]
# [3] = test system: differentiated HL-60 cells; assay: Inhibition of TPA-induced superoxide anion radical generation (HL-60 Antioxidant); format: cell-based, human; settings: screening concentration 100 µM; for inhibition at 100 µM: Homo sapiens, HL-60, read-out: HL-60 Antiox. %Inh
# Source text: Inhibition of 12-O-tetradecanoylphorbol-13-acetate (TPA)-induced superoxide anion radical generation in differentiated HL-60 cells (HL-60 Antioxidant) TPA-induced superoxide anion radical formation was detected in differentiated HL-60 cells by photometric determination of cytochrome c reduction as previously described by Gerhäuser et al., 2003.ii Superoxide dismutase (SOD;15U) was a positive control. […]
# [4] = Scavenging of diphenyl-picryl-hydrazyl radicals (DPPH); settings: for IC50: read-out: DPPH IC50; for DPPH %Inh: screening concentration 250 µM
# Source text: 1. Chemoprevention activity
# MCF-7 = settings: Fig. 1d; cited from earlier work
# MDA-MB-231 [5] = test system: MDA-MB-231; design: method as in doi:10.1007/s00044-014-1312-6; settings: previously reported; cited from earlier work
# [6] = MTT cytotoxicity towards normal cells, 48 h; format: cell-based; settings: MRC-5 cells (normal embryonic lung fibroblasts), human embryonal lung fibroblast cell, without UVA, read-out: Cytotoxic activity MRC-5 IC50
# Description: as §1, §2, §3
# [7] = test system: ERα activity in MCF-7 cells; design: method as in PMID 31673107; settings: read-out: IC50 antagonism of ERα activity in MCF-7 cells; cited from earlier work
# MDA-MB-231 [8] = assay: Dark and light-activated (UVA) cytotoxicity, MTT; format: cell-based; settings: Homo sapiens, MDA-MB-231, light or radiation study; irradiation with UVA (2.0 J cm^−2); HER2− breast cancer
# Description: (§4) The selected compounds were screened for their IC50 values against both HER2+ breast cancer (SK-BR-3), and HER2− breast cancer (MDA-MB-231) in both dark and light-activated conditions (Table 2). Additionally, a negative control study was also performed with SK-BR-3 and MDA-MB-231 cells in the absence of tested compound under UVA irradiation (See Fig S7., Supporting Information).
# (§5) SK-BR-3 and MDA-MB-231 cells were seeded into 96-well cell culture plates at 5 × 10^3 cells/well and incubated for 24 h at 37 °C under 5% CO2. After that, the cells were treated with 50 μM of psoralen derivatives in DMEM with 10% FBS and the cells were continued incubation for another 4 h. After incubation, the cells were washed with PBS (3 times) and then irradiated by a 365 nm lamp with the light intensity of 2.0 J cm^−2 for 12.5 min before re-incubation for another 72 h. After incubation, the cell was treated with methylthiazolyldiphenyl-tetrazolium bromide (MTT reagent 200 μL, 0.5 mg mL^−1, Sigma-Aldrich) for 2 h. After reagent removal, DMSO was added to dissolve the formazan product and the cell viabilities were determined through UV–Vis absorption of the resulting formazan at wavelength 560 nm using a microplate reader (BMG Labtech/SPECTROstar Nano). The cell morphology images were captured by using a light microscope (Microscope Nikon, inverted digital) at 20X magnification prior to treating with MTT reagent.
# MDA-MB-231 [9] = assay: Dark and light-activated (UVA) cytotoxicity, MTT; format: cell-based; settings: Homo sapiens, dark, HER2− breast cancer
# SK-BR-3 [10] = assay: Dark and light-activated (UVA) cytotoxicity, MTT; format: cell-based, human; settings: Homo sapiens, SK-BR-3, light or radiation study; irradiation with UVA (2.0 J cm^−2); HER2+ breast cancer
# Description: as §4, §5
# SK-BR-3 [11] = assay: Dark and light-activated (UVA) cytotoxicity, MTT; format: cell-based; settings: Homo sapiens, dark, HER2+ breast cancer
# SK-BR-3 cells = assay: Cell morphology by light microscope; format: cell-based, human; settings: 48 h; for morphology of SK-BR-3 cells under light activation: UVA 2.0 J cm^−2
# Description: as §5, with “After incubation, the cells were washed with PBS (3 times) and then irradiated by a 365 nm lamp with the light intensity of 2.0 J cm^−2 for 12.5 min before re-incubation for another 72 h.” left out
structure (smiles),measurement,setting,value
"COc1c2c(c(NC(=S)Nc3ccccc3)c3ccoc13)C(OC)CC(=O)O2 (stereo not shown) [compound 6, 1-(5,9-Dimethoxy-7-oxo-6,7-dihydro-5H-furo[3,2-g]chromen-4-yl)-3-phenylthiourea]",XXO %Inh,[1],24%
same,IC50,T47-D,> 100 µM
same,melting point,,191 to 192 °C
same,inhibition at 12.5 µM,aromatase (CYP19),18%
same,IC50,MDA-MB-231 [2],91.9 ± 4.49 µM
same,inhibition at 500 µM,xanthine oxidase,48%
same,HL-60 Antiox. %Inh,[3],Toxic
same,IC50,[4],52.6 µM
COc1c2occc2c(NCc2ccccc2)c2ccc(=O)oc12 [Vb],IC50,MCF-7,1.09 µM
same,IC50,MDA-MB-231 [5],3 µM
COc1c2occc2c(NC(=O)c2cccc3ccccc23)c2ccc(=O)oc12 [VIb],IC50 (MCF-7),MCF-7,Inactive
same,IC50,MDA-MB-231 [5],100 µM
"CC/C(=C(\c1ccccc1)c1ccc(OCCN(C)C)cc1)c1ccccc1 [Tamoxifen citrate, reference compound]",IC50,T47-D,20.9 ± 1.31 µM
same,IC50 at 48 h,[6],67.6 ± 10.5 µM
same,IC50,MDA-MB-231 [2],66 ± 2.48 µM
O=c1ccc2cc3ccoc3cc2o1 [psoralen],IC50,[7],24.1 µM
C=CCNc1c2ccoc2c(OC)c2oc(=O)ccc12 [Va],IC50,MCF-7,3.87 µM
same,IC50,MDA-MB-231 [5],5 µM
"COc1c2occc2c(NC(=O)C(C)C)c2ccc(=O)oc12 [3k, N-(9-Methoxy-7-oxo-7H-furo[3,2-g]chromen-4-yl)isobutyramide]",IC50,[1],394 µM
same,inhibition at 50 µg/mL,T47-D,36%
same,melting point,,234 to 235 °C
same,IC50,MDA-MB-231 [8],> 100 µM
same,IC50,MDA-MB-231 [9],> 100 µM
same,IC50,SK-BR-3 [10],66.1 ± 5.21 µM
same,IC50,SK-BR-3 [11],> 100 µM
same,inhibition at 12.5 µM,aromatase (CYP19),8%
same,inhibition at 50 µg/mL,MDA-MB-231 [2],4%
same,inhibition at 500 µM,xanthine oxidase,17%
same,inhibition at 100 µM,[3],11%
same,DPPH %Inh,[4],2%
O=c1ccc2cc3ccoc3c(O)c2o1 [xanthotoxol],IC50,[7],0.7 µM
"COc1c2occc2c(NC(=O)C23CC4CC(CC(C4)C2)C3)c2ccc(=O)oc12 [3n, (3r,5r,7r)-N-(9-Methoxy-7-oxo-7H-furo[3,2-g]chromen-4-yl)adamantane-1-carboxamide]",XXO %Inh,[1],47%
same,IC50,T47-D,43.06 ± 0.09 µM
same,Selectivity Index (SI),T47-D,> 3.0
same,melting point,,240 to 242 °C
same,IC50,MCF-7,0.48 µM
same,inhibition at 12.5 µM,aromatase (CYP19),5%
same,IC50,MDA-MB-231 [2],> 100 µM
same,inhibition at 100 µM,[3],8%
same,DPPH %Inh,[4],1%
same,IC50,MDA-MB-231 [5],2 µM
"COc1c2occc2c(NS(=O)(=O)c2ccccc2)c2ccc(=O)oc12 [compound 5, N-(9-Methoxy-7-oxo-7H-furo[3,2-g]chromen-4-yl)benzenesulfonamide]",IC50,[1],90.7 µM
same,IC50,T47-D,87.9 ± 6.34 µM
same,Selectivity Index (SI),T47-D,> 1.5
same,melting point,,208 to 209 °C
same,inhibition at 12.5 µM,aromatase (CYP19),33%
same,inhibition at 50 µg/mL,MDA-MB-231 [2],36%
same,inhibition at 500 µM,xanthine oxidase,21%
same,inhibition at 100 µM,[3],32%
same,DPPH %Inh,[4],8%
"COc1c2occc2c(NC(=O)c2ccco2)c2ccc(=O)oc12 [3g, N-(9-Methoxy-7-oxo-7H-furo[3,2-g]chromen-4-yl)furan-2-carboxamide]",inhibition at 50 µg/mL,T47-D,24%
same,morphology of SK-BR-3 cells under light activation,SK-BR-3 cells,significantly changed
same,morphology of SK-BR-3 cells under dark condition,SK-BR-3 cells,maintained morphology of intact cells
same,melting point,,227 to 228 °C
same,IC50,MDA-MB-231 [8],> 100 µM
same,IC50,MDA-MB-231 [9],> 100 µM
same,IC50,SK-BR-3 [10],2.71 ± 0.84 µM
same,IC50,SK-BR-3 [11],> 100 µM
same,inhibition at 12.5 µM,aromatase (CYP19),16%
same,inhibition at 50 µg/mL,MDA-MB-231 [2],0.5%
same,inhibition at 100 µM,[3],17%
same,DPPH %Inh,[4],3%
"COc1cccc2c1C(=O)c1c(O)c3c(c(O)c1C2=O)C[C@@](O)(C(=O)CO)C[C@@H]3O[C@H]1C[C@H](N)[C@H](O)[C@H](C)O1 [Doxorubicin, reference compound]",IC50,T47-D,1.46 ± 2.79 µM
same,Selectivity Index (SI),T47-D,2.1
same,IC50 at 48 h,[6],3.07 ± 0.22 µM
same,IC50,MDA-MB-231 [2],3.16 ± 0.26 µM
CC(C)=CCOc1c2ccoc2cc2oc(=O)ccc12 [isoimperatorin],IC50,[7],54.3 µM
"COc1c2occc2c(NCc2ccccc2)c2ccc(=O)oc12 [4a, 4-(Benzylamino)-9-methoxy-7H-furo[3,2-g]chromen-7-one]",XXO %Inh,[1],34%
same,IC50,T47-D,31.1 ± 1.54 µM
same,Selectivity Index (SI),T47-D,> 5.0
same,melting point,,168 to 169 °C
same,inhibition at 12.5 µM,aromatase (CYP19),46%
same,IC50,MDA-MB-231 [2],> 100 µM
same,IC50,xanthine oxidase,27.4 µM
same,inhibition at 100 µM,[3],7%
same,IC50,[4],145 µM
O=c1ccc2ccc3occc3c2o1 [angelicin],IC50,[7],11 µM
"CCC(=O)Nc1c2ccoc2c(OC)c2oc(=O)ccc12 [3j, N-(9-Methoxy-7-oxo-7H-furo[3,2-g]chromen-4-yl)propionamide]",IC50,[1],187 µM
same,inhibition at 50 µg/mL,T47-D,22%
same,morphology of SK-BR-3 cells under light activation,SK-BR-3 cells,significantly changed
same,morphology of SK-BR-3 cells under dark condition,SK-BR-3 cells,maintained morphology of intact cells
same,melting point,,233 to 234 °C
same,IC50,MDA-MB-231 [8],> 100 µM
same,IC50,MDA-MB-231 [9],> 100 µM
same,IC50,SK-BR-3 [10],3.05 ± 1.02 µM
same,IC50,SK-BR-3 [11],> 100 µM
same,inhibition at 12.5 µM,aromatase (CYP19),8%
same,inhibition at 50 µg/mL,MDA-MB-231 [2],3%
same,inhibition at 500 µM,xanthine oxidase,29%
same,inhibition at 100 µM,[3],11%
same,DPPH %Inh,[4],2%
